Test [1] can be described thus: Inhibition of MTP from dog liver microsomes by scintillation counting. On the set-up: species or system Canis lupus familiaris, Microsome.
A further test deals with HepG2. Put plainly: Inhibition of apoB secretion in human HepG2 cells after 40 hrs by ELISA. Format: functional, cell-based. To be noted: HepG2, 40 h.
Test [2] deals with Mus musculus. Put plainly: Decrease in body weight in […] at 10 mg/kg, po daily for 3 days. Format: functional, C57BL/6.
In test [3] the test system is Mus musculus. Put plainly: Increase in peptide YY level in 3-day high fat diet fed C57BL/6 mouse at 10 mg/kg, po daily for 3 days. Format: functional, organism-based. Further details: dose 10 mg/kg.
In test [4] the test system is Mus musculus. Put plainly: Decrease in total food intake in 3-day high fat diet fed C57BL/6 mouse at 10 mg/kg, po daily for 3 days. Format: functional.
For test [5], the system named is Mus musculus. Put plainly: Decrease in plasma triglyceride level in […] C57BL/6 mouse at 10 mg/kg, po daily for 3 days measured after 6 hrs. It is filed as functional.

Active and inactive are the calls of the source. The rule behind the calls is not given here.

Among the data in ChEMBL document CHEMBL1153899, “Discovery of benzothiazole derivatives as efficacious and enterocyte-specific MTP inhibitors” (Bioorg Med Chem Lett, 2009) are IC50 and Activity values, retold here.

On to `CCCCN(C)C(=O)[C@@H](NC(=O)c1nc2ccc(NC(=O)c3ccccc3-c3ccc(C(C)(C)C)cc3)cc2s1)c1ccccc1`, for which the concentration for half-maximal inhibition (IC50) came out at 9.5 nM in test [1] and 6.5 nM in the test with HepG2.

`CC(C)(C)c1ccc(-c2ccccc2C(=O)Nc2ccc3nc(C(=O)N[C@@H](C(=O)N4CCCC4)c4ccccc4)sc3c2)cc1`: the IC50 in the test with HepG2 was determined as 34.8 nM.

`CN(Cc1ccc(F)cc1)C(=O)[C@@H](NC(=O)c1nc2ccc(NC(=O)c3ccccc3-c3ccc(C(F)(F)F)cc3)cc2s1)c1ccccc1`: in the test on HepG2, the midpoint of inhibition, the IC50, lay at 17.3 nM.

`CC(C)(C)c1ccc(-c2ccccc2C(=O)Nc2ccc3nc(C(=O)N[C@H](C(=O)N4CCC(F)(F)C4)c4ccccc4)sc3c2)cc1` showed an IC50 in the test on HepG2 of 8.8 nM.

Consider `CCCCCNC(=O)[C@@H](NC(=O)c1nc2ccc(NC(=O)c3ccccc3-c3ccc(C(C)(C)C)cc3)cc2s1)c1ccccc1`, for which the concentration for half-maximal inhibition (IC50) is 8.4 nM in test [1] and 3.1 nM in the test with HepG2.

For `CN(Cc1ccc(F)cc1)C(=O)[C@@H](NC(=O)c1nc2ccc(NC(=O)c3ccccc3-c3nc(C(C)(C)C)cs3)cc2s1)c1ccccc1`, the IC50 was found to be 4.6 nM in test [1] and 4 nM in the test on HepG2. The outcome in the test on Mus musculus [2], in the test with Mus musculus [3], in the test with Mus musculus [4] and in the test on Mus musculus [5] was inactive.

For `Cc1csc2nc(-c3ccccc3C(=O)Nc3ccc4nc(C(=O)N[C@H](C(=O)N(C)Cc5ccc(F)cc5)c5ccccc5)sc4c3)cn12`, the IC50 in test [1] is 16.9 nM; in the test with HepG2, 6.9 nM. For the same molecule, the outcome in the test on Mus musculus [2], with Mus musculus [3], in the test on Mus musculus [4] and in the test on Mus musculus [5] was inactive.

As for `CN(Cc1ccc(F)cc1)C(=O)[C@@H](NC(=O)c1nc2ccc(NC(=O)c3ccccc3-c3ccc(C(C)(C)C)cc3)cc2s1)c1ccccc1`, the IC50 in test [1] came to 3 nM; in the test with HepG2, 2.7 nM. Also, the outcome in the test with Mus musculus [2], in the test on Mus musculus [3], in the test on Mus musculus [4] and in the test on Mus musculus [5] was Active.

As to `CN(Cc1ccc(F)cc1)C(=O)[C@@H](NC(=O)c1nc2ccc(NC(=O)c3ccccc3-c3cn4ccsc4n3)cc2s1)c1ccccc1`, the IC50 worked out at 14.8 nM in test [1] and 23.7 nM in the test on HepG2. For the same molecule, the result with Mus musculus [2], in the test with Mus musculus [3], with Mus musculus [4] and in the test with Mus musculus [5] was inactive.

Take `Cc1cccc(C(=O)Nc2ccc3nc(C(=O)N[C@H](C(=O)N(C)Cc4ccc(F)cc4)c4ccccc4)sc3c2)c1-c1ccc(C(C)(C)C)cc1`: the IC50 in test [1] was determined as 4.7 nM; in the test with HepG2, 2.9 nM. Besides, the result in the test with Mus musculus [2], in the test on Mus musculus [3], in the test on Mus musculus [4] and in the test with Mus musculus [5] was Active.

For the molecule `CN(Cc1ccc(F)cc1)C(=O)[C@@H](NC(=O)c1nc2ccc(NC(=O)c3ccccc3-c3cn4ccccc4n3)cc2s1)c1ccccc1`, the IC50 stood at 13 nM in test [1] and 4.2 nM in the test on HepG2. In addition, the result with Mus musculus [2], in the test on Mus musculus [3], with Mus musculus [4] and with Mus musculus [5] was inactive.

For `CC(C)(C)c1ccc(-c2ccccc2C(=O)Nc2ccc3nc(C(=O)N[C@H](C(=O)N4CCCC4)c4ccccc4)sc3c2)cc1`, the figures for the 50% inhibitory concentration (IC50) (in test [1]; in the test with HepG2) were 2.6 nM and 1.5 nM, respectively.

As for `COc1cccc(C(=O)Nc2ccc3nc(C(=O)N[C@H](C(=O)N(C)Cc4ccc(F)cc4)c4ccccc4)sc3c2)c1-c1ccc(C(C)(C)C)cc1`, the half-inhibitory concentration (IC50) in test [1] worked out at 7.9 nM; in the test on HepG2 it was 2.4 nM. Also, the outcome in the test on Mus musculus [2], with Mus musculus [3], with Mus musculus [4] and in the test on Mus musculus [5] was Active.

In the case of `CN(Cc1ccccc1)C(=O)[C@@H](NC(=O)c1cc2cc(NC(=O)c3ccccc3-c3ccc(C(F)(F)F)cc3)ccc2n1C)c1ccccc1` [DIRLOTAPIDE], the values for the IC50 (in test [1]; with HepG2) were 2 nM and 4 nM, respectively.
